Our source for the EC50 and IC50 values is patent US10023562B2, “Heteroaryl substituted pyridyl compounds useful as kinase modulators” (BRISTOL-MYERS SQUIBB COMPANY, priority 2012, dated 2018).

SMILES strings stand for the structures.

One assay deals with TLR2 induced IL-6 in peripheral blood mononuclear cells (PBMCs). The assay can be described thus: PBMC TLR2 Induced IL-6 Assay. Type of assay: cell-based. As to conditions: Homo sapiens, PBMC, 5 h, 10 μg/ml lipoteichoic acid for 5 hours, IL-6 by ELISA, values marked * are EC50, read-out: Cell EC50 (values marked *). How it is done: PBMC TLR2 Induced IL-6 Assay Peripheral blood mononuclear cells (PBMCs) were isolated from human blood containing the anti-coagulant EDTA (2.5 mM) by centrifugation over a FICOLL® gradient. […] At the end of the culture, plates were centrifuged at 1800 rpm for 10 minutes to pellet the cells. Supernatants were harvested and analyzed for IL-6 levels by ELISA (BD Biosciences, San Jose, Calif.).
On the technique in general: ELISA stands for enzyme-linked immunosorbent assay.
`CS(=O)(=O)[C@H]1CC[C@H](NC(=O)c2cnc(Nc3ncc(C#N)cc3F)cc2Nc2cccc(C(N)=O)c2)CC1` [Example 161]: the half-maximal effective concentration (EC50) turned out to be 303 nM.

Regarding `C[C@H](CO)Nc1cc(Nc2ncc(F)cc2F)ncc1C(=O)NC[C@@H](F)C(C)(C)O` [Example 100], the EC50 is 308 nM.

On to `CCNc1cc(Nc2ncc(C#N)cc2F)ncc1C(=O)NC[C@@H](F)C(C)(C)O` [Example 66], for which the EC50 was 63 nM.

On to `CC(C)Nc1cc(Nc2ncc(C#N)cc2F)ncc1C(=O)N[C@H]1CC[C@H](C(C)(C)O)CC1` [Example 137], for which the EC50 worked out at 72 nM.

`CCCNc1cc(Nc2ncc(C#N)cc2Cl)ncc1C(=O)NC[C@@H](F)C(C)(C)O` [Example 138]: the EC50 is 108 nM.

Regarding `CC(C)(O)[C@H](F)CNC(=O)c1cnc(Nc2ncc(C#N)cc2Cl)cc1NC1CCOCC1F` (stereo partly drawn) [Example 79], the EC50 amounted to 494 nM.

On to `CC(C)(F)CNc1cc(Nc2ncc(C#N)cc2Cl)ncc1C(=O)NC1CCC(C(C)(C)O)CC1` (stereo not drawn) [Example 103], for which the EC50 was 195 nM.

With `CC(C)Nc1cc(Nc2ncc(C#N)c(N)n2)ncc1C(=O)NC[C@@H](F)C(C)(C)O` [Example 136], the EC50 turned out to be 63 nM.

Consider `CC(C)Nc1cc(Nc2ncc(C#N)cc2F)ncc1C(=O)NC1CCC(O)(c2nccs2)CC1` (stereo not drawn) [Example 167], for which the EC50 was 638 nM.

Turning to `CC(C)Nc1cc(Nc2ncncc2F)ncc1C(=O)NC[C@@H](F)C(C)(C)O` [Example 53], the EC50 was 517 nM.

`CC(C)(O)[C@H](F)CNC(=O)c1cnc(Nc2ncc(F)cc2F)cc1NC1CC1` [Example 89]: the EC50 was 491 nM.

With `CC(=O)N[C@H]1CC[C@H](NC(=O)c2cnc(Nc3ncc(C#N)cc3Cl)cc2NC2CCOCC2)CC1` [Example 77], the EC50 amounted to 216 nM.

For `CC(C)Nc1cc(Nc2ccnc(N)n2)ncc1C(=O)NC[C@@H](F)C(C)(C)O` [Example 131], the EC50 turned out to be 137 nM.

For the compound `CC(C)(O)[C@H](F)CNC(=O)c1cnc(Nc2ncc(C(N)=O)cc2Cl)cc1NC1CCC(F)C1` (stereo partly drawn) [Example 38], the EC50 was 453 nM.

For the compound `CC(C)Nc1cc(Nc2ncc(C#N)cc2Cl)ncc1C(=O)N[C@H]1CC[C@H](O)CC1` [Example 92], the EC50 came to 269 nM.

For `Cn1nnnc1-c1ccc(Nc2cc(Nc3ncc(C#N)cc3Cl)ncc2C(=O)NC[C@@H](F)C(C)(C)O)cc1` [Example 148], the EC50 amounted to 111 nM.

In the case of `CC(C)Nc1cc(Nc2ncc(O)cn2)ncc1C(=O)NC[C@@H](F)C(C)(C)O` [Example 111], the EC50 was 653 nM.

With `CC(C)(O)[C@H](F)CNC(=O)c1cnc(Nc2ncc(Cl)cc2F)cc1NC1CC1` [Example 124], the EC50 stood at 98 nM.

In the case of `CC(C)Nc1cc(Nc2ncc(C#N)cc2F)ncc1C(=O)NCCCOC(C)(C)C` [Example 127], the EC50 is 254 nM.

As to `CC(Nc1cc(Nc2ncc(C#N)cn2)ncc1C(=O)NC[C@@H](F)C(C)(C)O)C1CC1` (stereo partly drawn) [Example 163], the EC50 worked out at 459 nM.

On to `CC(C)(O)[C@H](F)CNC(=O)c1cnc(Nc2ncc(C#N)cc2Cl)cc1NC1CCCC1O` (stereo partly drawn) [Example 76], for which the EC50 amounted to 107 nM.

In the case of `Cn1nnnc1-c1ccc(Nc2cc(Nc3ncc(C#N)cn3)ncc2C(=O)NC[C@@H](F)C(C)(C)O)cc1` [Example 147], the EC50 turned out to be 439 nM.

With `CCC(O)(CC)[C@H](F)CNC(=O)c1cnc(Nc2ncc(C#N)cn2)cc1NC(C)C` [Example 117], the EC50 amounted to 202 nM.

For the compound `CC(C)(O)[C@H](F)CNC(=O)c1cnc(Nc2ncc(F)cc2F)cc1NC1CCOCC1F` (stereo partly drawn) [Example 108], the EC50 was 368 nM.

In the case of `CC(C)(O)c1cnc(Nc2cc(Nc3ncc(C#N)cc3Cl)ncc2C(=O)NC[C@@H](F)C(C)(C)O)s1` [Example 75], the EC50 amounted to 54 nM.

Regarding `CC(C)(O)[C@H](F)CNC(=O)c1cnc(Nc2ncc(C#N)cc2F)cc1Nc1cccc(O)c1` [Example 125], the EC50 amounted to 85 nM.

On to `CC(C)CCNc1cc(Nc2ncc(C#N)cc2F)ncc1C(=O)NC[C@@H](F)C(C)(C)O` [Example 141], for which the EC50 amounted to 412 nM.

As for `CC(C)(O)[C@H](F)CNC(=O)c1cnc(Nc2ncc(C#N)c(N)n2)cc1NC1CC1` [Example 154], the EC50 was 529 nM.

For the compound `CC(C)(O)[C@H](F)CNC(=O)c1cnc(Nc2ncc(C#N)cc2F)cc1Nc1cccc(C(N)=O)c1` [Example 135], the EC50 is 129 nM.

`C[C@@H](CO)Nc1cc(Nc2ncc(C#N)cn2)ncc1C(=O)NC[C@@H](F)C(C)(C)O` [Example 101]: the EC50 was found to be 380 nM.

As for `CC(C)Nc1cc(Nc2ncc(C#N)cc2F)ncc1C(=O)NCCc1ccc(S(N)(=O)=O)cc1` [Example 121], the concentration giving a half-maximal response (EC50) was 49 nM.

`Cn1nnnc1-c1cccc(Nc2cc(Nc3ncc(C#N)cc3Cl)ncc2C(=O)NC[C@@H](F)C(C)(C)O)c1` [Example 146]: the EC50 was 509 nM.

In the case of `CC(C)(O)[C@H](F)CNC(=O)c1cnc(Nc2ncc(C#N)cc2F)cc1NC1CCC(F)C1` (stereo partly drawn) [Example 114], the EC50 was determined as 56 nM.

As to `CC(C)(O)[C@H](F)CNC(=O)c1cnc(Nc2ncc(C#N)cc2Cl)cc1N[C@H]1CC[C@](C)(O)CC1` [Example 150], the EC50 came to 62 nM.

On to `CC(C)CCNc1cc(Nc2ncc(C#N)cc2Cl)ncc1C(=O)NC[C@@H](F)C(C)(C)O` [Example 140], for which the 50% effective concentration (EC50) stood at 241 nM.

With `COc1cccc(Nc2cc(Nc3ncc(C#N)cc3F)ncc2C(=O)NC[C@@H](F)C(C)(C)O)c1` [Example 130], the EC50 was 89 nM.

On to `CC(C)(F)CNc1cc(Nc2ncc(C#N)cc2Cl)ncc1C(=O)NC[C@@H](F)C(C)(C)O` [Example 46], for which the EC50 is 206 nM.

On to `COC(=O)N[C@H]1CC[C@H](NC(=O)c2cnc(Nc3ncc(C#N)cc3F)cc2NC(C)C)CC1` [Example 165], for which the EC50 was found to be 279 nM.

Take `COC[C@H](F)CNC(=O)c1cnc(Nc2ncc(C#N)cc2F)cc1NC(C)C` [Example 35, (R)-6-((5-cyano-3-fluoropyridin-2-yl)amino)-N-(2-fluoro-3-methoxypropyl)-4-(isopropylamino)nicotinamide]: the EC50 stood at 350 nM.

Staying with this assay, now noted: Homo sapiens, PBMC, 5 h, 10 μg/ml lipoteichoic acid for 5 hours, IL-6 by ELISA, values without asterisk, read-out: Cell IC50.
`CC(C)(O)[C@H](F)CNC(=O)c1cnc(Nc2ccc(C#N)cn2)cc1NCC(F)(F)F` [Example 3, 6-((5-cyano-2-pyridinyl)amino)-N-((2R)-2-fluoro-3-hydroxy-3-methylbutyl)-4-((2,2,2-trifluoroethyl)amino)nicotinamide]: the IC50 worked out at 789 nM.

In the case of `CC(=O)N[C@H](C)CCNC(=O)c1cnc(Nc2ncc(C#N)cc2Cl)cc1NC(C)C` [Example 28, (R)—N-(3-acetamidobutyl)-6-((3-chloro-5-cyanopyridin-2-yl)amino)-4-(isopropylamino)nicotinamide], the IC50 amounted to 270 nM.

As for `CNC(=O)[C@H]1CC[C@H](NC(=O)c2cnc(Nc3ncc(C#N)cc3Cl)cc2NC2CC2)CC1` [Example 60], the IC50 worked out at 52 nM.

Take `CC(=O)N[C@H]1CC[C@H](NC(=O)c2cnc(Nc3ncc(C#N)cc3F)cc2NC(C)C)CC1` [Example 19, N-(trans-4-acetamidocyclohexyl)-6-((5-cyano-3-fluoro-2-pyridinyl)amino)-4-(isopropylamino)nicotinamide]: the IC50 amounted to 378 nM.

Turning to `CCNc1cc(Nc2ncc(C#N)cc2Cl)ncc1C(=O)NC[C@@H](F)C(C)(C)O` [Example 51], the IC50 was 99 nM.

Turning to `CC(C)(O)[C@H](F)CNC(=O)c1cnc(Nc2ncc(C#N)cc2F)cc1NC1CCOCC1` [Example 49], the IC50 worked out at 164 nM.

With `CC(C)Nc1cc(Nc2ccc(=O)[nH]n2)ncc1C(=O)NC[C@@H](F)C(C)(C)O` [Example 45], the IC50 was found to be 712 nM.

For `CC(C)(O)[C@H](F)CNC(=O)c1cnc(Nc2ncc(C#N)cc2F)cc1NC1CCCOC1` (stereo partly drawn) [Example 97], the IC50 amounted to 418 nM.

In the case of `CC(C)(O)[C@H](F)CNC(=O)c1cnc(Nc2ccncn2)cc1NC1CC1` [Example 21, 4-(cyclopropylamino)-N-((2R)-2-fluoro-3-hydroxy-3-methylbutyl)-6-(4-pyrimidinylamino)nicotinamide], the IC50 is 331 nM.

As to `CNC(=O)[C@H]1CC[C@H](NC(=O)c2cnc(Nc3ncc(C#N)cc3Cl)cc2NC(C)C)CC1` [Example 16, 6-((3-chloro-5-cyanopyridin-2-yl)amino)-4-(isopropylamino)-N—((1r,4r)-4-(methylcarbamoyl)cyclohexyl)nicotinamide], the IC50 is 212 nM.

Take `CNC(=O)[C@H]1CC[C@H](NC(=O)c2cnc(Nc3ccc(C#N)cn3)cc2NC(C)C)CC1` [Example 5, 6-((5-cyano-2-pyridinyl)amino)-4-(isopropylamino)-N-(trans-4-(methylcarbamoyl)cyclohexyl)nicotinamide]: the IC50 worked out at 588 nM.

As to `CC(=O)N[C@H]1CC[C@H](NC(=O)c2cnc(Nc3ncc(C#N)cc3Cl)cc2NC(C)C)CC1` [Example 15, N-((1r,4r)-4-acetamidocyclohexyl)-6-((3-chloro-5-cyanopyridin-2-yl)amino)-4-(isopropylamino)nicotinamide], the IC50 stood at 245 nM.

For the compound `CC(C)(O)[C@H](F)CNC(=O)c1cnc(Nc2ncc(C#N)cc2Cl)cc1NC1CC1` [Example 14, 6-((3-chloro-5-cyano-2-pyridinyl)amino)-4-(cyclopropylamino)-N-((2R)-2-fluoro-3-hydroxy-3-methylbutyl)nicotinamide], the IC50 came to 43 nM.

For `CCNc1cc(Nc2ccc(C#N)cn2)ncc1C(=O)NC[C@@H](F)C(C)(C)O` [Example 4, 6-((5-cyano-2-pyridinyl)amino)-4-(ethylamino)-N-((2R)-2-fluoro-3-hydroxy-3-methylbutyl)nicotinamide], the IC50 came to 454 nM.

Consider `CNC(=O)[C@H]1CC[C@H](NC(=O)c2cnc(Nc3ncc(C#N)cc3F)cc2NC(C)C)CC1` [Example 18, 6-((5-cyano-3-fluoropyridin-2-yl)amino)-4-(isopropylamino)-N-((1r,4r)-4-(methylcarbamoyl)cyclohexyl)nicotinamide], for which the IC50 was determined as 137 nM.

By EC50 is commonly meant the concentration that produces a half-maximal response. What is called IC50 is the concentration at which inhibition is half-maximal.
